Assay results reported in patent US8722637B2, “Methods and compositions of IG20 and DENN-SV splice variants” (The Board of Trustees of the University of Illinois, priority 2003, dated 2014).

Tests used:
Format in all cases: cell-based, human
[1] = tested on: HeLa-control, HeLa-IG20 and HeLa-DENN-SV cells; assay: Colony formation after etoposide treatment (crystal violet)
Description: (§1) FIG. 9: Effects of IG20 and DENN-SV on survival and proliferation of cells treated with etoposide. (A) Cell survival after etoposide treatment. Cells were treated with the indicated doses of etoposide and allowed to grow in culture for 2 weeks and stained with crystal violet. (B) Enumeration of colonies after etoposide treatment. Three different experiments using the indicated doses of etoposide were used to determine the effects of the drug on HeLa-control, HeLa-IG20 and HeLa-DENN-SV cells. P values were <0.05 for all test groups. (C) Etoposide-Induced apoptosis. Cells treated with the indicated doses of etoposide were stained with Hoechst as described in Materials and Methods and evaluated for chromatin condensation under a microscope. P values were <0.05 for all test groups. (D) Cell Division after Etoposide Treatment. Cells were stained with CFDA and then subjected to 5 μM etoposide treatment for 5 days. Cells were then harvested and evaluated by FACS for CFDA staining intensity. Histograms show relative levels of CFDA dye retention. The peak on the left within each histogram represents cells that have undergone cell division, and therefore, partially lost CFDA staining, whereas the peak on the right represents undivided cells that retained maximum CFDA staining.
(§2) Cells were plated (10^5 cells/well) the day before treatment into 6 well plates. Cells were treated with etoposide for 24 hours or vinblastine for 1 hour at indicated concentrations. After treatment, cells were washed 3 times with PBS and then replenished with fresh media and incubated at 37° C. Two weeks later, cells were fixed in ice-cold methanol and stained with crystal violet for visualization.

[2] = tested on: HeLa-control, HeLa-IG20 and HeLa-DENN-SV cells; assay: Etoposide-induced apoptosis, Hoechst chromatin condensation
Description: as §1
Cells were stained in situ with 1 μg/ml of Hoechst 33342 (Sigma, St. Louis, Mo.) in DMEM for 10 minutes at 37° C. […]

[3] = tested on: HeLa-control, HeLa-IG20 and HeLa-DENN-SV cells; assay: Cell division after etoposide treatment, CFDA staining; conditions: 5 μM etoposide for 5 days
Description: as §1
1×10^5 Cells/100 mm^2 plate were stained with 2 μM CFDA (Molecular Probes, Eugene, Oreg.) in situ in 5 ml PBS/100 mm^2 for 10 minutes at 37° C. Cells were then washed 3 times and replenished with new media Cells were harvested 5 days later and analyzed by FACS.

[4] = tested on: HeLa-control, HeLa-IG20 and HeLa-DENN-SV cells; assay: Vinblastine-induced apoptosis, chromatin condensation by Hoechst staining; conditions: 0.05 μM vinblastine, Hoechst 24 hours after treatment
Description: (§3) FIG. 8: Effect of IG20 and DENN-SV on Cell Survival and Apoptosis of TransfectedCells after Vinblastine Treatment. (A) Cell survival after Vinblastine treatment. […] (B) Vinblastine-Induced apoptosis. Cells treated with 0.05 μM vinblastine were stained with Hoechst 24 hours after the treatment in order to determine the percentage of cells with condensed chromatin. P values were <0.05 for all test groups.
as §2
Cells were stained in situ with 1 μg/ml of Hoechst 33342 (Sigma, St. Louis, Mo.) in DMEM for 10 minutes at 37° C. Chromatin condensation was then visualized in situ using a Diaphot 200 inverted microscope with an epifluorescence attachment (Nikon, Inc., Melville, N.Y.). 10 different fields were randomly chosen to determine the average number of cells with condensed chromatin (apoptotic) as compared to live cells.

[5] = tested on: HeLa-control, HeLa-IG20 and HeLa-DENN-SV cells; assay: Cell survival (crystal violet colonies) after vinblastine treatment; conditions: dose of 0.05 ∝M, two weeks
Description: as §3, §2

HeLa cells = assay: TNFα-induced mitochondrial depolarization in Annexin V-separated cells
From the text: FIG. 7: Endogenous Expression of IG20 variants and Susceptibility To TNF-Induced Apoptosis. (A) Magnetic Separation of Apoptotic and TNFα-resistant Cells. Apoptotic cells were magnetized and physically separated from TNFα-resistant cells using the Annexin V-conjugated microbeads, as described in Materials and Methods. mRNAs were then isolated from apoptotic and TNFα-resistant cells separately and were used in RT-PCR using IG20-specific primers F-1 and B-1. […] In contrast, marked increase in expression of IG20 with no expression of DENN-SV (the anti-apoptotic variant) is seen in apoptotic cells. (B) TNFα-Induced Mitochondrial Depolarization in apoptotic and TNFα-resistant cells. Cells in (A) were then assessed for mitochondrial depolarization. […] Bars represent averages from three wells for each group. The experiment was repeated at least three times and consistent results were obtained.
Cells were plated in 6-well plates at 1.2×10^5 in growth medium. Twenty four hours later, cells were either untreated or treated with 10 ng/ml TNF-α and 10 μg/ml cyclohexamide (CHX) for 6 hours. To assess the effects of TNFα and CHX treatment, cells were either stained with 100 nM tetramethylrhodamine ethyl ester (TMRE) (Molecular Probes, Eugene, Oreg.) for 10 minutes, harvested by trypsinization, washed once with ice-cold PBS and then subjected to FACS analysis, or were stained with either trypan blue and evaluated for viability using a light microscope, or with 1 μg/ml Hoechst 33342 (Sigma) for 10 minutes and evaluated for chromatin condensation in situ using a Diaphot 200 inverted microscope with an epifluorescence attachment (Nikon, Melville, N.Y.).
To separate cells that were undergoing apoptosis, or resistant to apoptosis upon TNFα treatment, the Annexin V microbeads (Miltenyi Biotec, Inc.) were used according to manufacturer's protocol. Annexin V is a phospholipid-binding protein that recognizes phosphatidylserine on the surface of apoptotic cells. […]

HeLa IG20 cells = assay: TRAIL or TNF-α/cycloheximide induced apoptosis in HeLa IG20 cells (caspase activation, TMRE, Hoechst); conditions: 5 hours; TRAIL 100 ng/mL, or 10 ng/mL TNF-α and 10 μg/mL cycloheximide
Description: FIG. 13: IG20 transfected HeLa cells show increased apoptosis upon TRAIL treatment. HeLa-IG20 and control cells were treated for 5 hours with TRAIL at 100 ng/mL or with 10 ng/mL of TNF-α and 10 μg/mL of Cycloheximide and analyzed for apoptosis. A) Activation of caspases—cells were incubated for 10 minutes with FITC labeled general caspase inhibitor VAD FMK (Val-Ala-Asp-flouromethyl ketone) and analyzed by FACS. Numbers in the histogram indicate percentage of FITC positive cells. B) Mitochondrial Depolarization—Loss of the dye TMRE is indicative of mitochondrial depolarization and the numbers shown in the FACS histograms represent percentage of TMRE negative cells. All the above experiments were done in triplicates and results shown are representative histograms. […] D) Percentage of cells with condensed chromatin was calculated by counting 3 fields containing at least 200 cells each and error bars indicate mean±S.D.
Mitochondrial depolarization and chromatin condensation—2×10^5 HeLa IG20 and Vector control cells were plated into a 12-well culture dish and allowed to grow for 48 hours. […] Cells were assessed for loss of mitochondrial membrane potential by staining with tetramethylrhodamine ethyl ester (100 nm, Molecular Probes, Eugene, Oreg.) for 10 minutes, washed once with ice-cold PBS, collected and subjected to FACS analysis. […]

caspase-3 = assay: Caspase-3 activation in HeLa IG20 cells; conditions: 5 hours; TRAIL, or TNF-α and cycloheximide
Description: FIG. 15: IG20 Cells show increased specific activation of caspases upon TRAIL treatment A) Initiator caspases—Hela IG20 cells and control cells treated with TRAIL for 1H, were stained, with flourochrome-conjugated peptide inhibitors of specific active caspases as indicated, fixed and analyzed by FACS. B) Caspase-8 cleavage—IG20 HeLa cells and control cells were treated with TRAIL for either 1H or 3H, lysed and immunoblotted for the 10 kDa cleaved product of active caspase-8 using the 6B6 monoclonal antibody. […]
Caspase activation—To assess the general activation of caspases, cells were stained with FITC tagged caspase inhibitor Val-Ala-Asp-flouromethyl ketone Promega, Madison, Wis.) for 10 minutes at 37° C., washed and analyzed by FACS for percentage of FITC positive cells. The initiator caspases were analyzed by using carboxyflourescein labeled peptide flouromethlyketone inhibitors (FAM-peptide-FMK) directed against active caspase-8, 9 and 10 (APOLOGIX caspase detection kit, Cell Tech Inc., Minneapolis, Minn.). […] Cells were collected, washed once, resuspended in Perm/wash buffer and analyzed by FACS for PE positive population. […]

**Q.** For `COc1cc([C@@H]2c3cc4c(cc3[C@@H](O[C@@H]3O[C@@H]5CO[C@@H](C)O[C@H]5[C@H](O)[C@H]3O)[C@H]3COC(=O)[C@H]23)OCO4)cc(OC)c1O` [etoposide], which “Colonies formed after etoposide treatment” value (shortened to “Colonies formed”) ([1]; HeLa-DENN-SV cells, 5 μM etoposide) is on record?
**A.** 125 colonies

**Q.** What about the “Colonies formed” value ([1]; HeLa-DENN-SV cells, 20 μM etoposide) of the same compound?
**A.** approximately 40 colonies

**Q.** What about the “Growth after etoposide treatment” value ([1]; HeLa-DENN-SV cells, 30 μM etoposide) of the same compound?
**A.** able to grow

**Q.** What about the “Colonies formed” value ([1]; HeLa-IG20 cells, 5 μM etoposide, on average) of the same compound?
**A.** 8 colonies

**Q.** What about the “Colonies formed” value ([1]; HeLa-IG20 cells, 20 μM etoposide) of the same compound?
**A.** very few or no colonies

**Q.** And the “Colonies formed” value ([1]; HeLa-control cells, 5 μM etoposide)?
**A.** 39 colonies

**Q.** And the Etoposide-induced apoptosis ([2]; HeLa-DENN-SV cells)?
**A.** noticeable resistance to etoposide-induced apoptosis

**Q.** What about the Etoposide-induced apoptosis ([2]; HeLa-IG20 cells) of the same compound?
**A.** did not show a marked increase in susceptibility to apoptosis

**Q.** And the “Cell division as indicated by CFDA staining” value (shortened to “Cell division as indicated”) ([3]; DENN-SV cells)?
**A.** 36%

**Q.** What about the “Cell division as indicated” value ([3]; HeLa-IG20 cells) of the same compound?
**A.** 9%

**Q.** And the “Cell division as indicated” value ([3]; control cells)?
**A.** 24%

**Q.** What does the source list for `CC[C@]1(O)C[C@@H]2CN(CCc3c([nH]c4ccccc34)[C@@](C(=O)OC)(c3cc4c(cc3OC)N(C)[C@H]3[C@@](O)(C(=O)OC)[C@H](OC(C)=O)[C@]5(CC)C=CCN6CC[C@]43[C@@H]65)C2)C1` [vinblastine]?
**A.** Vinblastine-induced apoptosis as measured by chromatin condensation ([4]; HeLa-DENN-SV cells): 21%; Vinblastine-induced apoptosis as measured by chromatin condensation ([4]; HeLa-IG20 cells): 70%; Vinblastine-induced apoptosis as measured by chromatin condensation ([4]; HeLa-controls): 46%; Cell survival (colonies) after vinblastine treatment ([5]; HeLa-DENN-SV cells): not significantly affected; Cell survival (colonies) after vinblastine treatment ([5]; HeLa-IG20 cells): only a few HeLa-IG20 colonies detectable; Cell survival (colonies) after vinblastine treatment ([5]; HeLa-control cells): intermediary response

**Q.** Which “Apoptosis (cells with depolarized mitochondria)” value (HeLa cells; Annexin V-negative HeLa cells after TNFα and CHX) does the source give for TNFα here?
**A.** 8%

**Q.** What about the “Apoptosis (cells with depolarized mitochondria)” value (HeLa cells; Annexin V-positive HeLa cells after TNFα and CHX) of the same compound?
**A.** 93%

**Q.** And the “Apoptosis (cells with depolarized mitochondria)” value (HeLa cells; unseparated control HeLa cells)?
**A.** 35%

**Q.** What about the “Increase in cells undergoing apoptosis, HeLa IG20 versus control cells” value (HeLa IG20 cells) of the same compound?
**A.** two-fold increase

**Q.** What about the “Relative increase in caspase-3 activation, HeLa IG20 relative to control cells” value (caspase-3) of the same compound?
**A.** less than two fold increase
